Experiment [1] has as its target T1, human muscarinic acetylcholine M3 receptor (Homo sapiens, UniProt P20309).
T1 construct: expressed in transfected cells; host or cells: CHO-K1 (Chinese Hamster Ovary) cell membranes
Put plainly: Muscarinic 3 receptor binding assay ([3H]NMS competition, SPA), pIC50. The note with it: [3H]NMS 0.1 nM, CHO-K1 cell membranes expressing human M3 receptor. Put shortly: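 SPA beads precoated with human M3-expressing CHO-K1 membranes were incubated 16 h at room temperature with serially diluted compound and 0.1 nM [3H]NMS (pH 7.4 HEPES buffer, MgCl2, BSA, 1% DMSO). Atropine (1 μM) defined non-specific binding; pIC50 is the 50% reduction in specific binding.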

Another experiment has as its target T2, Adrenergic β2 (Homo sapiens, UniProt P07550).
T2 construct: Adherent H292 cells are removed from tissue culture flasks by treatment with Accutase™ cell detachment solution; endogenous in cells; host or cells: H292 cells
In words: Adrenergic β2 mediated cAMP production in H292 cells (AlphaScreen), concentration response. The note with it: for EC50: 60 min, 300 μM rolipram, read-out: β2 pEC50 (converted); for β2 Intrinsic Activity: fraction relative to the maximum activity determined for formoterol. Format: cell-based. Put shortly: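 Intracellular cAMP in lysates read by AlphaScreen, calibrated with cAMP standards; curves fitted for pEC50, with intrinsic activity as a fraction of formoterol's maximum. Agonist exposure 60 min at room temperature after 10 min rolipram (300 μM final), 1% DMSO, HEPES-buffered HBSS pH 7.4.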
(In general: cAMP levels reflect the balance of adenylyl cyclase and phosphodiesterase activity.)

T1 sequence (P20309 whole entry): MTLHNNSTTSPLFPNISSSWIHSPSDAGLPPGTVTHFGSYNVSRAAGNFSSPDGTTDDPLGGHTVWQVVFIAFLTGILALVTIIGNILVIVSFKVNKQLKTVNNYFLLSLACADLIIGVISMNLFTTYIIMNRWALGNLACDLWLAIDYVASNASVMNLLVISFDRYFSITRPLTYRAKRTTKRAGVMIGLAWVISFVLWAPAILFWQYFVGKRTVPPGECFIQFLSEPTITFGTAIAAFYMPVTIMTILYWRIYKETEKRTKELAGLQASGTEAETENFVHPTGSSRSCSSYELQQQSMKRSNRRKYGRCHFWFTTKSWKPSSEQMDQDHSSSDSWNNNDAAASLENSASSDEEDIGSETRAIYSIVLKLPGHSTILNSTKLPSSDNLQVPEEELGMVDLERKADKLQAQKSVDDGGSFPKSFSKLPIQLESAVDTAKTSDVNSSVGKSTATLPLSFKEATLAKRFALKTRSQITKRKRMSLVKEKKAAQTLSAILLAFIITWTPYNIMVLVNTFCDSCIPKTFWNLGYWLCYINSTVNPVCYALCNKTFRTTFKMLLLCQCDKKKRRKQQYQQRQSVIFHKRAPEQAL
T2 sequence (P07550 whole entry): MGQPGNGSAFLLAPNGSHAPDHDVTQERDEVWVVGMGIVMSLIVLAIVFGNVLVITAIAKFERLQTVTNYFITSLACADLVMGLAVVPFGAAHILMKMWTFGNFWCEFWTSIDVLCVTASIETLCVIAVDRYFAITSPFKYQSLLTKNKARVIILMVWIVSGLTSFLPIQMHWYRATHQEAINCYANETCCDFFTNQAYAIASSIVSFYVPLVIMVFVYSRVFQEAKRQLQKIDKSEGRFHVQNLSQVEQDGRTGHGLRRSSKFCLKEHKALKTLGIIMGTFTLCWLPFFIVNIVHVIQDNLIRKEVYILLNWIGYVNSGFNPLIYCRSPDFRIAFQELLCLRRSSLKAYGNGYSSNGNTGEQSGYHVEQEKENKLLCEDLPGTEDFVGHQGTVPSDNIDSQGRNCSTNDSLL

As to `CCCCc1nc(C(=O)N2CCOC3(CCN(Cc4cccc(CCOCCC(=O)N(CC)CCNCCc5ccc(O)c6c5OCC(=O)N6)c4Cl)CC3)C2)cs1` [Example 77, 3-(3-((4-(2-Butylthiazole-4-carbonyl)-1-oxa-4,9-diazaspiro[5.5]undecan-9-yl)methyl)-2-chlorophenethoxy)-N-ethyl-N-(2-(2-(5-hydroxy-3-oxo-3,4-dihydro-2H-benzo[b][1,4]oxazin-8-yl)ethylamino)ethyl)propanamide ditrifluoroacetate], the IC50 (as a rule, the concentration that inhibits the measured activity by half) in experiment [1] is 3.98 nM. For the same compound, at Adrenergic β2, the EC50 was 12.6 nM and the “β2 Intrinsic Activity” value is given as 0.8.
For `CCN(CCNCCc1ccc(O)c2[nH]c(=O)sc12)C(=O)CCOCCc1cc(CCN2CCC3(CC2)CN(C(=O)c2csc(C(C)C)n2)CCO3)cs1` [Example 78, N-Ethyl-N-(2-(2-(4-hydroxy-2-oxo-2,3-dihydrobenzo[d]thiazol-7-yl)ethylamino)ethyl)-3-(2-(4-(2-(4-(2-isopropylthiazole-4-carbonyl)-1-oxa-4,9-diazaspiro[5.5]undecan-9-yl)ethyl)thiophen-2-yl)ethoxy)propanamide ditrifluoroacetate] the same measures were 2.51 nM, 12.6 nM and 1.0.
On the same counts, the results for `CC(C)c1nc(C(=O)N2CCOC3(CCN(Cc4cccc(CCOCCC(=O)N(CCNCCc5ccc(O)c6c5OCC(=O)N6)CC(F)(F)F)c4F)CC3)C2)cs1` [Example 79, ditrifluoroacetate] are 0.126 nM, 126 nM and 1.0.
For `CCCCN(CCCNCCc1ccc(O)c2c1OCC(=O)N2)C(=O)CCOCCc1cccc(CN2CCC3(CC2)CN(C(=O)c2csc(CC)n2)CCO3)c1Cl` [Example 80] the same measures were 0.631 nM, 63.1 nM and 0.5.
`O=C1COc2c(CCNCCN(C(=O)CCOCCc3cccc(CN4CCC5(CC4)CN(C(=O)c4cc6ccccc6s4)CCO5)c3)C3CCCCC3)ccc(O)c2N1` [Example 81, 3-(3-((4-(Benzo[b]thiophene-2-carbonyl)-1-oxa-4,9-diazaspiro[5.5]undecan-9-yl)methyl)phenethoxy)-N-cyclohexyl-N-(2-(2-(5-hydroxy-3-oxo-3,4-dihydro-2H-benzo[b][1,4]oxazin-8-yl)ethylamino)ethyl)propanamide] had an IC50 in experiment [1] of 3.98 nM. Besides, at Adrenergic β2, the EC50 was 251 nM and the “β2 Intrinsic Activity” value amounted to 0.9.
On the same counts, the results for `O=C1COc2c(CCNCCN(C(=O)CCOCCc3cccc(CN4CCC5(CC4)CN(C(=O)c4csc(-c6ccccc6)n4)CCO5)c3)C3CCCCC3)ccc(O)c2N1` [Example 82, N-Cyclohexyl-N-(2-(2-(5-hydroxy-3-oxo-3,4-dihydro-2H-benzo[b][1,4]oxazin-8-yl)ethylamino)ethyl)-3-(3-((4-(2-phenylthiazole-4-carbonyl)-1-oxa-4,9-diazaspiro[5.5]undecan-9-yl)methyl)phenethoxy)propanamide] are 1.26 nM, 501 nM and 1.0.
On the same counts, the results for `CCc1ccc(C(=O)N2CCOC3(CCN(Cc4cccc(CCOCCC(=O)N(CCNCCc5ccc(O)c6c5OCC(=O)N6)C5CCCCC5)c4)CC3)C2)s1` [Example 83, N-Cyclohexyl-3-(3-((4-(5-ethylthiophene-2-carbonyl)-1-oxa-4,9-diazaspiro[5.5]undecan-9-yl)methyl)phenethoxy)-N-(2-(2-(5-hydroxy-3-oxo-3,4-dihydro-2H-benzo[b][1,4]oxazin-8-yl)ethylamino)ethyl)propanamide] are 0.316 nM, 251 nM and 1.1.
On the same counts, the results for `O=C1COc2c(CCNCCN(C(=O)CCOCCc3cccc(CN4CCC5(CC4)CN(C(=O)c4ccc6occc6c4)CCO5)c3)C3CCCCC3)ccc(O)c2N1` [Example 84, 3-(3-((4-(Benzofuran-5-carbonyl)-1-oxa-4,9-diazaspiro[5.5]undecan-9-yl)methyl)phenethoxy)-N-cyclohexyl-N-(2-(2-(5-hydroxy-3-oxo-3,4-dihydro-2H-benzo[b][1,4]oxazin-8-yl)ethylamino)ethyl)propanamide] are 0.2 nM, 200 nM and 1.0.
On to `Cc1cc(C(=O)N2CCOC3(CCN(Cc4cccc(CCOCCC(=O)N(CCNCCc5ccc(O)c6c5OCC(=O)N6)C5CCCCC5)c4)CC3)C2)cs1` [Example 85, N-Cyclohexyl-N-(2-(2-(5-hydroxy-3-oxo-3,4-dihydro-2H-benzo[b][1,4]oxazin-8-yl)ethylamino)ethyl)-3-(3-((4-(5-methylthiophene-3-carbonyl)-1-oxa-4,9-diazaspiro[5.5]undecan-9-yl)methyl)phenethoxy)propanamide], for which, in experiment [1], the IC50 was 0.126 nM. Besides, on Adrenergic β2, the EC50 is 126 nM and the “β2 Intrinsic Activity” value was found to be 0.9.
On the same counts, the results for `CC(C)(C)c1nc(C(=O)N2CCOC3(CCN(Cc4cccc(CCOCCC(=O)N(CCNCCc5ccc(O)c6c5OCC(=O)N6)C5CCCCC5)c4)CC3)C2)cs1` [Example 86, 3-(3-((4-(2-tert-Butylthiazole-4-carbonyl)-1-oxa-4,9-diazaspiro[5.5]undecan-9-yl)methyl)phenethoxy)-N-cyclohcxyl-N-(2-(2-(5-hydroxy-3-oxo-3,4-dihydro-2H-benzo[b][1,4]oxazin-8-yl)ethylamino)ethyl)propanamide] are 1.58 nM, 158 nM and 1.0.
On the same counts, the results for `O=C1COc2c(CCNCCN(C(=O)CCOCCc3cccc(CN4CCC5(CC4)CN(C(=O)c4csc(C6CCC6)n4)CCO5)c3)C3CCCCC3)ccc(O)c2N1` [Example 87, 3-(3-((4-(2-Cyclobutylthiazole-4-carbonyl)-1-oxa-4,9-diazaspiro[5.5]undecan-9-yl)methyl)phenethoxy)-N-cyclohexyl-N-(2-(2-(5-hydroxy-3-oxo-3,4-dihydro-2H-benzo[b][1,4]oxazin-8-yl)ethylamino)ethyl)propanamide] are 0.2 nM, 158 nM and 1.0.
For the compound `O=C1COc2c(CCNCCN(C(=O)CCOCCc3cccc(CN4CCC5(CC4)CN(C(=O)c4csc(C6CCCC6)n4)CCO5)c3)C3CCCCC3)ccc(O)c2N1` [Example 88, N-Cyclohexyl-3-(3-((4-(2-cyclopentylthiazole-4-carbonyl)-1-oxa-4,9-diazaspiro[5.5]undecan-9-yl)methyl)phenethoxy)-N-(2-(2-(5-hydroxy-3-oxo-3,4-dihydro-2H-benzo[b][1,4]oxazin-8-yl)ethylamino)ethyl)propanamide], the IC50 in experiment [1] was 0.2 nM. For the same compound, on Adrenergic β2, the EC50 was 200 nM and the “β2 Intrinsic Activity” value was found to be 1.0.
On the same counts, the results for `Cc1cc(C(=O)N2CCOC3(CCN(Cc4cccc(CCOCCC(=O)N(CCNCCc5ccc(O)c6c5OCC(=O)N6)C5CCCCC5)c4)CC3)C2)sc1C` [Example 89, N-Cyclohexyl-3-(3-((4-(4,5-dimethylthiophene-2-carbonyl)-1-oxa-4,9-diazaspiro[5.5]undecan-9-yl)methyl)phenethoxy)-N-(2-(2-(5-hydroxy-3-oxo-3,4-dihydro-2H-benzo[b][1,4]oxazin-8-yl)ethylamino)ethyl)propanamide] are 5.01 nM, 200 nM and 1.0.
